Publication PMC7914897, “Cytotoxic Potential of a-Azepano- and 3-Amino-3,4-SeCo-Triterpenoids” (International Journal of Molecular Sciences, 2021)

Tests used:
EKVX (NSC lung cancer) = assay: NCI-60 screen (SRB, 48 h); settings: Homo sapiens; for IC (TGI): 48 h, read-out: TGI
SK-OV-3 (Ovarian cancer) = assay: NCI-60 screen (SRB, 48 h); settings: Homo sapiens; for GI50: SK-OV-3; for IC (TGI): SK-OV-3, 48 h, read-out: TGI; for CC50: SK-OV-3, read-out: LC50
Renal Cancer subpanel = assay: NCI-60 screen, subpanel; settings: Homo sapiens; for IC (TGI): 48 h, read-out: TGI MG_MID; for GI50: read-out: GI50 MG_MID; for CC50: read-out: LC50 MG_MID
T-47D (Breast cancer) = assay: NCI-60 screen (SRB, 48 h); settings: Homo sapiens, T47D; for IC (TGI): 48 h, read-out: TGI
SK-MEL-2 (Melanoma) = assay: NCI-60 screen (SRB, 48 h); settings: Homo sapiens; for GI50: SK-MEL-2; for IC (TGI): SK-MEL-2, 48 h, read-out: TGI
[1] = test system: NCI-H522 (NSC lung cancer); assay: NCI-60 screen (SRB, 48 h); settings: Homo sapiens; for GI50: NCI-H522; for IC (TGI): NCI-H522, 48 h, read-out: TGI
KM12 (Colon cancer) = assay: NCI-60 screen (SRB, 48 h); settings: Homo sapiens; for GI50: KM12; for IC (TGI): KM12, 48 h, read-out: TGI
CCRF-CEM (Leukemia) = assay: NCI-60 screen (SRB, 48 h); settings: Homo sapiens; for CC50: read-out: LC50
786-0 (Renal cancer) = assay: NCI-60 screen (SRB, 48 h); settings: Homo sapiens; for GI50: 786-0; for IC (TGI): 786-0, 48 h, read-out: TGI
RXF 393 (Renal cancer) = assay: NCI-60 screen (SRB, 48 h); settings: for GI50: RXF 393; for IC (TGI): RXF 393, 48 h, read-out: TGI
CAKI-1 (Renal cancer) = assay: NCI-60 screen (SRB, 48 h); settings: for GI50 / IC (TGI) / CC50: Homo sapiens; for GI50: CAKI-1; for IC (TGI): CAKI-1, 48 h, read-out: TGI; for CC50: CAKI-1, read-out: LC50
UO-31 (Renal cancer) = assay: NCI-60 screen (SRB, 48 h); settings: Homo sapiens; for GI50: UO-31; for IC (TGI): UO-31, 48 h, read-out: TGI
UACC-62 (Melanoma) = assay: NCI-60 screen (SRB, 48 h); settings: Homo sapiens; for GI50: UACC-62; for IC (TGI): UACC-62, 48 h, read-out: TGI
RPMI-8226 (Leukemia) = assay: NCI-60 screen (SRB, 48 h); settings: Homo sapiens; for GI50: RPMI-8226; for IC (TGI): RPMI-8226, 48 h, read-out: TGI
PC-3 (Prostate cancer) = assay: NCI-60 screen (SRB, 48 h); settings: Homo sapiens; for GI50: PC-3; for IC (TGI): PC-3, 48 h, read-out: TGI
Prostate cancer subpanel = assay: NCI-60 screen, subpanel; settings: Homo sapiens; for IC (TGI): 48 h, read-out: TGI MG_MID; for GI50: read-out: GI50 MG_MID
[2] = test system: A375 (malignant melanoma); assay: SRB cytotoxicity assay, 72 h; type: cell-based, human; settings: Homo sapiens, A-375, 72 h, A375, 72 h, cut-off 30 µM; read-out: EC50
Method in brief: (§1)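 EC50 values reflect percent surviving cells versus untreated controls, read at 570 nm after SRB staining of TCA-fixed monolayers. Dosing spanned 0–30 µM over 72 h.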

[3] = test system: HT29 (colorectal carcinoma); assay: SRB cytotoxicity assay, 72 h; type: cell-based, human; settings: Homo sapiens, HT-29; HT29, 72 h, cut-off 30 µM; read-out: EC50
Method in brief: as §1

[4] = test system: FaDu (hypopharyngeal carcinoma); assay: SRB cytotoxicity assay, 72 h; type: cell-based, human; settings: Homo sapiens, cut-off 30 µM, read-out: EC50
Method in brief: as §1

[5] = test system: A2780 (ovarian carcinoma); assay: SRB cytotoxicity assay, 72 h; type: cell-based, human; settings: Homo sapiens; A2780, 72 h, cut-off 30 µM; read-out: EC50
Method in brief: as §1

IGROV1 (Ovarian cancer) = assay: NCI-60 screen (SRB, 48 h); settings: for GI50: IGROV-1; for Growth % of the Most Sensitive Cell Lines: IGROV1, 1 dose 10 µM
[6] = test system: A549/ATCC (NSC lung cancer); assay: NCI-60 screen (SRB, 48 h); settings: Homo sapiens; for GI50: A549; for IC (TGI): A549, 48 h, read-out: TGI
K-562 (Leukemia) = assay: NCI-60 screen (SRB, 48 h); settings: Homo sapiens; for GI50: K562
NSC lung cancer subpanel = assay: NCI-60 screen, subpanel; settings: Homo sapiens; for IC (TGI): 48 h, read-out: TGI MG_MID; for GI50: read-out: GI50 MG_MID

`C=C(C)[C@@H]1CCC=C2CC[C@]3(C)[C@H](CC[C@@H]4[C@@]5(C)CCCNC(C)(C)[C@@H]5CC[C@]43C)[C@H]21` [Compound 8] showed a GI50 (EKVX (NSC lung cancer)) of 1.66 µM, an IC (TGI) (EKVX (NSC lung cancer)) of 3.21 µM and a GI50 (SK-OV-3 (Ovarian cancer)) of 1.81 µM. It also gave an IC (TGI) (SK-OV-3 (Ovarian cancer)) of 3.37 µM, a CC50 (SK-OV-3 (Ovarian cancer)) of 6.28 µM and an IC (TGI) (Renal Cancer subpanel) of 3.34 µM. For the same compound, the GI50 (Renal Cancer subpanel) was 1.79 µM, the CC50 (Renal Cancer subpanel) was 6.18 µM and the GI50 (T-47D (Breast cancer)) was 1.72 µM. It also gave an IC (TGI) (T-47D (Breast cancer)) of 3.47 µM, a CC50 (T-47D (Breast cancer); read-out: LC50) of 7 µM and a GI50 (SK-MEL-2 (Melanoma)) of 2.01 µM. The IC (TGI) (SK-MEL-2 (Melanoma)) was 3.69 µM, the CC50 (SK-MEL-2 (Melanoma); SK-MEL-2, read-out: LC50) was 6.8 µM and the GI50 [1] was 1.93 µM. The IC (TGI) [1] was 3.5 µM, the CC50 ([1]; NCI-H522, read-out: LC50) was 6.35 µM and the GI50 (KM12 (Colon cancer)) was 1.93 µM. It also gave an IC (TGI) (KM12 (Colon cancer)) of 3.6 µM, a CC50 (KM12 (Colon cancer); KM12, read-out: LC50) of 6.71 µM and a GI50 (CCRF-CEM (Leukemia)) of 2.27 µM. It also gave an IC (TGI) (CCRF-CEM (Leukemia); 48 h, read-out: TGI) of 5.63 µM, a CC50 (CCRF-CEM (Leukemia)) greater than 100 µM and a GI50 (786-0 (Renal cancer)) of 1.76 µM. The IC (TGI) (786-0 (Renal cancer)) was 3.51 µM, the GI50 (RXF 393 (Renal cancer); Homo sapiens) was 1.74 µM and the IC (TGI) (RXF 393 (Renal cancer); Homo sapiens) was 3.32 µM. The CC50 (RXF 393 (Renal cancer); Homo sapiens, RXF 393, read-out: LC50) was 6.33 µM, the “Growth % of the Most Sensitive Cell Lines” value (“Growth %” for short) (RXF 393 (Renal cancer); RXF 393, 1 dose 10 µM) was −91.86% and the “Growth %” value (CAKI-1 (Renal cancer); CAKI-1, 1 dose 10 µM) was −92.49%. For the same compound, the GI50 (CAKI-1 (Renal cancer)) was 1.81 µM, the IC (TGI) (CAKI-1 (Renal cancer)) was 3.22 µM and the CC50 (CAKI-1 (Renal cancer)) was 5.73 µM. For the same compound, the GI50 (UO-31 (Renal cancer)) was 1.52 µM, the IC (TGI) (UO-31 (Renal cancer)) was 2.89 µM and the CC50 (UO-31 (Renal cancer); UO-31, read-out: LC50) was 5.52 µM. It also gave a GI50 (UACC-62 (Melanoma)) of 1.73 µM, an IC (TGI) (UACC-62 (Melanoma)) of 3.16 µM and a CC50 (UACC-62 (Melanoma); UACC-62, read-out: LC50) of 5.76 µM. It also gave a GI50 (RPMI-8226 (Leukemia)) of 2.26 µM, an IC (TGI) (RPMI-8226 (Leukemia)) of 4.73 µM and a GI50 (PC-3 (Prostate cancer)) of 1.65 µM. For the same compound, the IC (TGI) (PC-3 (Prostate cancer)) was 3.06 µM, the CC50 (PC-3 (Prostate cancer); PC-3, read-out: LC50) was 5.68 µM and the IC (TGI) (Prostate cancer subpanel) was 3.2 µM. The GI50 (Prostate cancer subpanel) was 1.71 µM, the CC50 (Prostate cancer subpanel; read-out: LC50 MG_MID) was 5.97 µM and the EC50 [2] was 1.78 ± 0.1 µM. It also gave an EC50 [3] of 1.3 ± 0.2 µM, an EC50 [4] of 1.75 ± 0.2 µM and an EC50 [5] of 1.88 ± 0.2 µM. It also gave a GI50 (IGROV1 (Ovarian cancer); Homo sapiens) of 1.69 µM, an IC (TGI) (IGROV1 (Ovarian cancer); Homo sapiens, IGROV-1, 48 h, read-out: TGI) of 3.28 µM and a CC50 (IGROV1 (Ovarian cancer); Homo sapiens, IGROV-1, read-out: LC50) of 6.35 µM. For the same compound, the “Growth %” value (IGROV1 (Ovarian cancer)) was −94.22%, the GI50 [6] was 2.02 µM and the IC (TGI) [6] was 3.73 µM. The CC50 ([6]; A549, read-out: LC50) was 6.89 µM, the GI50 (K-562 (Leukemia)) was 0.32 µM and the IC (TGI) (NSC lung cancer subpanel) was 3.3 µM. The GI50 (NSC lung cancer subpanel) was 1.73 µM and the CC50 (NSC lung cancer subpanel; read-out: LC50 MG_MID) was 6.18 µM.
`C=C(C)[C@@H]1CC[C@]2(COS(=O)(=O)c3ccc(C)cc3)CC[C@]3(C)[C@@H](CC[C@@H]4[C@@]5(C)CCCNC(C)(C)[C@@H]5CC[C@]43C)[C@@H]12` [Compound 12] showed a GI50 (EKVX (NSC lung cancer)) of 1.62 µM, an IC (TGI) (EKVX (NSC lung cancer)) of 3.11 µM and a GI50 (SK-OV-3 (Ovarian cancer)) of 1.87 µM. For the same compound, the IC (TGI) (SK-OV-3 (Ovarian cancer)) was 3.3 µM, the CC50 (SK-OV-3 (Ovarian cancer)) was 5.82 µM and the IC (TGI) (Renal Cancer subpanel) was 3.26 µM. It also gave a GI50 (Renal Cancer subpanel) of 1.76 µM, a CC50 (Renal Cancer subpanel) of 5.87 µM and a GI50 (T-47D (Breast cancer)) of 1.57 µM. The IC (TGI) (T-47D (Breast cancer)) was 3.15 µM, the GI50 (SK-MEL-2 (Melanoma)) was 1.84 µM and the IC (TGI) (SK-MEL-2 (Melanoma)) was 3.32 µM. For the same compound, the GI50 [1] was 1.7 µM, the IC (TGI) [1] was 3.23 µM and the GI50 (KM12 (Colon cancer)) was 1.84 µM. The IC (TGI) (KM12 (Colon cancer)) was 3.41 µM, the GI50 (CCRF-CEM (Leukemia)) was 2.28 µM and the CC50 (CCRF-CEM (Leukemia)) was greater than 100 µM. The GI50 (786-0 (Renal cancer)) was 1.92 µM, the IC (TGI) (786-0 (Renal cancer)) was 3.59 µM and the GI50 (RXF 393 (Renal cancer); Homo sapiens) was 1.62 µM. The IC (TGI) (RXF 393 (Renal cancer); Homo sapiens) was 3.13 µM, the GI50 (CAKI-1 (Renal cancer)) was 1.74 µM and the IC (TGI) (CAKI-1 (Renal cancer)) was 3.15 µM. It also gave a CC50 (CAKI-1 (Renal cancer)) of 5.71 µM, a GI50 (UO-31 (Renal cancer)) of 1.64 µM and an IC (TGI) (UO-31 (Renal cancer)) of 3.04 µM. For the same compound, the GI50 (UACC-62 (Melanoma)) was 2.05 µM, the IC (TGI) (UACC-62 (Melanoma)) was 3.64 µM and the GI50 (RPMI-8226 (Leukemia)) was 1.86 µM. The IC (TGI) (RPMI-8226 (Leukemia)) was 4.54 µM, the CC50 (RPMI-8226 (Leukemia); RPMI-8226, read-out: LC50) was greater than 100 µM and the GI50 (PC-3 (Prostate cancer)) was 1.58 µM. It also gave an IC (TGI) (PC-3 (Prostate cancer)) of 3 µM, an IC (TGI) (Prostate cancer subpanel) of 3.15 µM and a GI50 (Prostate cancer subpanel) of 1.67 µM. It also gave an EC50 [2] of 2.03 ± 0.1 µM, an EC50 [3] of 1.96 ± 0.3 µM and an EC50 [4] of 1.59 ± 0.1 µM. For the same compound, the EC50 [5] was 1.68 ± 0.1 µM, the GI50 (IGROV1 (Ovarian cancer); Homo sapiens) was 1.84 µM and the “Growth %” value (IGROV1 (Ovarian cancer)) was −87.10%. It also gave a GI50 [6] of 1.87 µM, an IC (TGI) [6] of 3.5 µM and a GI50 (K-562 (Leukemia)) of 1.57 µM. It also gave a CC50 (K-562 (Leukemia); K562, read-out: LC50) greater than 100 µM, an IC (TGI) (NSC lung cancer subpanel) of 3.25 µM and a GI50 (NSC lung cancer subpanel) of 1.71 µM.
